Consider 6 molecules from patent publication US20120121591A1 (priority 2009, published 2012).

Structures are written as SMILES.

Common to all, as to format: cell-based
For one assay, the target named is hKv1.3 (Homo sapiens, UniProt P22001). Kind of assay: cell-based. The conditions noted are these: Kv1.3 (IWQ) IC50 (nM, Avg).
Assay [1] relates to IFN-g secretion from T cells in human whole blood. The conditions noted are these: read-out: WB (IFNg) IC50 (nM, Avg).
Assay [2] concerns IL-2 secretion from T cells in human whole blood. The conditions noted are these: read-out: WB (IL-2) IC50 (nM, Avg).

Chain of hKv1.3 (P22001 whole entry): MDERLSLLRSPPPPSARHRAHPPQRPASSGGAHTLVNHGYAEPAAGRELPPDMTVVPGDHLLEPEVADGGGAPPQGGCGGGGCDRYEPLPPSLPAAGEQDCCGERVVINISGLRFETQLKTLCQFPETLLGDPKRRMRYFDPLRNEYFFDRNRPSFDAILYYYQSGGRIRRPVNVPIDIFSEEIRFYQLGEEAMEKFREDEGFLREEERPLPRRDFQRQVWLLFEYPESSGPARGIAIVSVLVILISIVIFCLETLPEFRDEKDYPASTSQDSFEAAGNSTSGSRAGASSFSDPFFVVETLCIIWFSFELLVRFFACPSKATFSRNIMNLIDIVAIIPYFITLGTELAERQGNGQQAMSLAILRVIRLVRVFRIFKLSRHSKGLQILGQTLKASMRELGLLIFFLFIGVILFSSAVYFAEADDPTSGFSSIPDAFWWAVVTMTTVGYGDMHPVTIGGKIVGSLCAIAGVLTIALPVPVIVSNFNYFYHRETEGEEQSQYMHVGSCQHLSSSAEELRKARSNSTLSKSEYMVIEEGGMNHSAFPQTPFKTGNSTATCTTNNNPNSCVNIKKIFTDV

A word on the IC50: it is the concentration at which inhibition is half-maximal. For `CCCC[C@@H]1NC(=O)[C@H](CO)NC(=O)[C@H](Cc2c[nH]cn2)NC(=O)[C@H](CCCCN)NC(=O)[C@@H]2CSSC[C@@H]3NC(=O)[C@H]([C@@H](C)O)NC(=O)[C@H](C)NC(=O)[C@H](CCCCN)NC(=O)[C@H](CSSC[C@H](NC(=O)[C@H](CCCNC(=N)N)NC(=O)[C@H](CO)NC(=O)[C@H](CCCCN)NC(=O)[C@@H]4CCCN4C(=O)[C@H]([C@@H](C)CC)NC(=O)[C@H]([C@@H](C)O)NC(=O)[C@H](CC(=O)O)NC(=O)[C@H]([C@@H](C)CC)NC(=O)[C@@H](NC(=O)[C@H](CO)NC(=O)[C@@H](N)CCCNC(=N)N)CSSC[C@@H](C(N)=O)NC(=O)[C@H]([C@@H](C)O)NC(=O)CNC3=O)C(=O)N[C@@H]([C@@H](C)O)C(=O)N[C@@H](C)C(=O)N[C@@H](Cc3ccccc3)C(=O)N[C@@H](CCCCN)C(=O)N2)NC(=O)[C@H](Cc2ccccc2)NC(=O)[C@H](CO)NC(=O)[C@H](CC(C)C)NC(=O)[C@H](CCCNC(=N)N)NC(=O)[C@H](Cc2ccc(O)cc2)NC(=O)[C@H](CCCCN)NC1=O` [[Lys16, 29; Ala30,Nle21]ShK-amide], the IC50 is 0.057 nM at hKv1.3, 1.7 nM in assay [1] and 0.791 nM in assay [2].

Take `CC[C@H](C)[C@@H]1NC(=O)[C@@H](NC(=O)[C@H](CO)NC(=O)[C@@H](N)CCCNC(=N)N)CSSC[C@@H](C(N)=O)NC(=O)[C@H]([C@@H](C)O)NC(=O)CNC(=O)[C@@H]2CSSC[C@@H]3NC(=O)[C@H](CCCCN)NC(=O)[C@H](Cc4ccccc4)NC(=O)[C@H](C)NC(=O)[C@H]([C@@H](C)O)NC(=O)[C@H](CSSC[C@H](NC(=O)[C@H](Cc4ccccc4)NC(=O)[C@H](CO)NC(=O)[C@H](CC(C)C)NC(=O)[C@H](CCCNC(=N)N)NC(=O)[C@H](Cc4ccc(O)cc4)NC(=O)[C@H](CCCCN)NC(=O)[C@H](CCSC)NC(=O)[C@H](CO)NC(=O)[C@H](Cc4c[nH]cn4)NC(=O)[C@H](CCCCN)NC3=O)C(=O)N[C@@H](CCCCN)C(=O)N[C@@H](C)C(=O)N[C@@H]([C@@H](C)O)C(=O)N2)NC(=O)[C@H](CCCNC(=N)N)NC(=O)[C@H](CO)NC(=O)[C@H](CCCCN)NC(=O)[C@@H]2CCCN2C(=O)[C@H]([C@@H](C)CC)NC(=O)[C@H]([C@@H](C)O)NC(=O)[C@H](CC(=O)O)NC1=O` [[Lys16, 29;A1a30]ShK-amide]: the figures for the IC50 (on hKv1.3; in assay [1]; in assay [2]) were 0.197 nM, 0.289 nM and 0.186 nM, respectively.

As for `CC[C@H](C)[C@@H]1NC(=O)[C@@H](NC(=O)[C@H](CO)NC(=O)[C@@H](N)CCCNC(=N)N)CSSC[C@@H](C(N)=O)NC(=O)[C@H]([C@@H](C)O)NC(=O)CNC(=O)[C@@H]2CSSC[C@@H]3NC(=O)[C@H](CCCCN)NC(=O)[C@H](Cc4ccccc4)NC(=O)[C@H](C)NC(=O)[C@H]([C@@H](C)O)NC(=O)[C@H](CSSC[C@H](NC(=O)[C@H](Cc4ccccc4)NC(=O)[C@H](CO)NC(=O)[C@H](CC(C)C)NC(=O)[C@H](CCCNC(=N)N)NC(=O)[C@H](Cc4ccc(O)cc4)NC(=O)[C@H](CCCCN)NC(=O)[C@H](CCSC)NC(=O)[C@H](CO)NC(=O)[C@H](Cc4c[nH]cn4)NC(=O)[C@H](CCCNC(=N)N)NC3=O)C(=O)N[C@@H](CCCCN)C(=O)N[C@@H](CCCNC(=N)N)C(=O)N[C@@H]([C@@H](C)O)C(=O)N2)NC(=O)[C@H](CCCNC(=N)N)NC(=O)[C@H](CO)NC(=O)[C@H](CCCCN)NC(=O)[C@@H]2CCCN2C(=O)[C@H]([C@@H](C)CC)NC(=O)[C@H]([C@@H](C)O)NC(=O)[C@H](CC(=O)O)NC1=O` [[Lys16, 29;Arg18,30]ShK-amide], the half-maximal inhibitory concentration (IC50) against hKv1.3 worked out at 0.401 nM; in assay [1] it was 0.242 nM; in assay [2], 0.26 nM.

Consider `CC[C@H](C)[C@@H]1NC(=O)[C@@H](NC(=O)[C@H](CO)NC(=O)[C@@H](N)CCCNC(=N)N)CSSC[C@@H](C(N)=O)NC(=O)[C@H]([C@@H](C)O)NC(=O)CNC(=O)[C@@H]2CSSC[C@@H]3NC(=O)[C@H](CCCCN)NC(=O)[C@H](Cc4ccccc4)NC(=O)[C@H](C)NC(=O)[C@H]([C@@H](C)O)NC(=O)[C@H](CSSC[C@H](NC(=O)[C@H](Cc4ccccc4)NC(=O)[C@H](Cc4ccccc4)NC(=O)[C@H](CC(C)C)NC(=O)[C@H](CCCNC(=N)N)NC(=O)[C@H](Cc4ccc(O)cc4)NC(=O)[C@H](CCCCN)NC(=O)[C@H](CCSC)NC(=O)[C@H](CO)NC(=O)[C@H](Cc4c[nH]cn4)NC(=O)[C@H](CCCCN)NC3=O)C(=O)N[C@@H](CCCCN)C(=O)N[C@@H](CCCCN)C(=O)N[C@@H]([C@@H](C)O)C(=O)N2)NC(=O)[C@H](CCCNC(=N)N)NC(=O)[C@H](CO)NC(=O)[C@H](CCCCN)NC(=O)[C@@H]2CCCN2C(=O)[C@H]([C@@H](C)CC)NC(=O)[C@H]([C@@H](C)O)NC(=O)[C@H](CC(=O)O)NC1=O` [[Lys16, 29;Phe26]ShK-amide], for which the IC50 amounted to 0.542 nM on hKv1.3, 1.36 nM in assay [1] and 1.42 nM in assay [2].

Regarding `CC[C@@H]1NC(=O)[C@H](CO)NC(=O)[C@H](Cc2c[nH]cn2)NC(=O)[C@H](CCCCN)NC(=O)[C@@H]2CSSC[C@@H]3NC(=O)[C@H]([C@@H](C)O)NC(=O)[C@H](CCCCN)NC(=O)[C@H](CCCNC(=N)N)NC(=O)[C@H](CSSC[C@H](NC(=O)[C@H](CCCNC(=N)N)NC(=O)[C@H](CO)NC(=O)[C@H](CCCCN)NC(=O)[C@@H]4CCCN4C(=O)[C@H]([C@@H](C)CC)NC(=O)[C@H]([C@@H](C)O)NC(=O)[C@H](CC(=O)O)NC(=O)[C@H]([C@@H](C)CC)NC(=O)[C@@H](NC(=O)[C@H](CO)NC(=O)[C@@H](N)CCCNC(=N)N)CSSC[C@@H](C(N)=O)NC(=O)[C@H]([C@@H](C)O)NC(=O)CNC3=O)C(=O)N[C@@H]([C@@H](C)O)C(=O)N[C@@H](C)C(=O)N[C@@H](Cc3ccccc3)C(=O)N[C@@H](CCCCN)C(=O)N2)NC(=O)[C@H](Cc2ccccc2)NC(=O)[C@H](CO)NC(=O)[C@H](CC(C)C)NC(=O)[C@H](CCCNC(=N)N)NC(=O)[C@H](Cc2ccc(O)cc2)NC(=O)[C@H](CCCCN)NC1=O` [[Lys16, Abu21]ShK-amide], the half-maximal inhibitory concentration (IC50) on hKv1.3 worked out at 0.246 nM; in assay [1], 1.53 nM; in assay [2] it was 1.2 nM.

On to `CC[C@H](C)[C@@H]1NC(=O)[C@@H](NC(=O)[C@H](CO)NC(=O)[C@@H](N)CCCNC(=N)N)CSSC[C@@H](C(N)=O)NC(=O)[C@H]([C@@H](C)O)NC(=O)CNC(=O)[C@@H]2CSSC[C@@H]3NC(=O)[C@H](CCCCN)NC(=O)[C@H](Cc4ccccc4)NC(=O)[C@H](C)NC(=O)[C@H]([C@@H](C)O)NC(=O)[C@H](CSSC[C@H](NC(=O)[C@H](Cc4ccccc4)NC(=O)[C@H](CO)NC(=O)[C@H](CC(C)C)NC(=O)[C@H](CCCNC(=N)N)NC(=O)[C@H](Cc4ccc(O)cc4)NC(=O)[C@H](CCCCN)NC(=O)[C@H](CC(=O)O)NC(=O)[C@H](CO)NC(=O)[C@H](Cc4c[nH]cn4)NC(=O)[C@H](CCCCN)NC3=O)C(=O)N[C@@H](CCCNC(=N)N)C(=O)N[C@@H](CCCCN)C(=O)N[C@@H]([C@@H](C)O)C(=O)N2)NC(=O)[C@H](CCCNC(=N)N)NC(=O)[C@H](CO)NC(=O)[C@H](CCCCN)NC(=O)[C@@H]2CCCN2C(=O)[C@H]([C@@H](C)CC)NC(=O)[C@H]([C@@H](C)O)NC(=O)[C@H](CC(=O)O)NC1=O` [[Lys16, Asp21]ShK-amide], for which the IC50 at hKv1.3 turned out to be 0.35 nM; in assay [1] it was 3.63 nM; in assay [2] it was 2.31 nM.
